Experimental data from patent publication US8148426B2, “Bis(thio-hydrazide amides) for increasing Hsp70 expression” (Synta Pharmaceuticals Corp., priority 2004, dated 2012).
Values joined by “and” are separate entries in the source; they are usually repeats but may differ in a detail not shown here. Equal entries are not always repeated. Where two headings read alike, the source gives them in different places.

Tests used:
K562/eGFP = assay: NK cell cytotoxic activity of patients' PBMC (Example 12); format: in vivo, human
Description: The following procedure can be employed to assay NK cell activity in a subject. The procedure is adapted from Kantakamalakul W, Jaroenpool J, Pattanapanyasat K. A novel enhanced green fluorescent protein (EGFP)-K562 flow cytometric method for measuring natural killer (NK) cell cytotoxic activity. J Immunol Methods. 2003 Jan. 15; 272:189-197, the entire teachings of which are incorporated herein by reference.
K562 cells were transduced with retroviral vector which encode green fluorescent protein (eGFP). Stable cell line was selected with antibiotic, G418.
The subject's peripheral blood mononuclear cells (PBMCs) were prepared by clinical study sites and received in BD Vacutainer Cell Preparation Tube with sodium heparin (Product Number: 362753, Becton Dickinson, Franklin Lakes, N.J.).
Effector cells alone and target cells alone were used as controls. All tubes were incubated at 37° C. with 5% CO2 for about 3.5 hr. Ten microliters of propidium iodide (PI) at a concentration of 1 mg/mL was added t each tube including effector and target control tubes and then incubated at room temperature for 15 min.
Cytotoxic activity was analyzed with a FACSCalibur flow cytometer (Becton Dickinson). Linear amplification of the forward and side scatter (FSC/SSC) signals, as well as logarithmic amplification of eGFP and PI emission in green and red fluorescence were obtained. […]

in vivo = assay: in vivo
Procedure: The compounds were prepared in two formulations: Formulation A contained 10% DMSO, and 18% Cremophor RH40 in water; Formulation B contained ethanol:Cremophor EL in a 1:1 ratio.
Blood samples were taken at 30 min, 1, 2, and 4 hr after injection. Brain tissue samples were taken after blood collected at 30 min, where one mouse from each group was selected and its brain was removed for analysis.
Blood samples were combined with 3-5 mg solid DTT, after which the sample was vortexed and centrifuged at 6,000 rpm×10 min. A 50 μL aliqot of plasma was taken, followed by the addition of 50 μL 1% DTT and 150 μL CH3CN (0.1% TFA). The mixture was vortexed and centrifuged at 10,000 rpm×5 min. The 150 μL supernatant was diluted with 150 μL water. A weighed tissue sample was homogenized in PBS (1:1), then combined with 1% DTT (1:1), followed by the addition of CH3CN containing 0.1% TFA (3:1). The mixture was vortexed and centrifuged at 10,000 rpm×5 min. The 150 μL supernatant was diluted with 150 μL water. 100 μL prepared samples were subjected to HPLC, using 5-95% CH3CN (0.1% trifluoroacetic acid) as the eluent.

[1] = Phase 1/2 study, safety (Example 12); format: in vivo, human
Procedure: Phase 1 (safety/PK/MTD (maximum tolerated dose) was followed by a Phase 2 randomized two arm portion. Two dose levels were evaluated in Phase 1.
Dosing was IV q 3 weeks for up to 6 cycles in the absence of dose-limiting toxicity or progression. […] The phase 2 primary endpoint is time to progression, with secondary endpoints of response rate, survival, and quality of life. Study pharmacodynamic parameters include NK cell activity and Hsp70 level.

Hsp70 [2] = assay: Plasma Hsp70 levels by ELISA in non-tumor-bearing mice (Example 3); format: in vivo; settings: normal (non-tumor bearing) mice; 25 mg/kg intravenously 3 times a week; compared to vehicle
Procedure: Non-tumor-bearing mice were with either vehicle alone or compound (1). The vehicle employed was 10% DMSO, 18% Cremophor RH40. […] Plasma samples were prepared from tail bleed. Plasma Hsp70 levels were determined by Enzyme-Linked Immunosorbent Assay (ELISA). Plasma Hsp70 was measured by a sandwich ELISA kit (Stressgen Bioreagents Victoria, British Columbia, CANADA) according to a modified protocol in house. In brief, Hsp70 in plasma specimens and serial concentrations of Hsp70 standard were captured onto 96-well plate on which anti-Hsp70 antibody was coated. Then captured Hsp70 was detected with a biotinylated anti-Hsp70 antibody followed by incubation with europium-conjugated streptavidin. After each incubation unbound materials were removed by washing. Finally, antibody-Hsp70 complex was measured by time resolved fluorometry of europium. Concentration of Hsp70 was calculated from a standard curve.

Hsp70 [3] = assay: Phase I trial, Hsp70 in plasma before and after treatment (Example 11); format: in vivo, human
Procedure: Plasma Hsp70 was measured by a sandwich ELISA kit (Stressgen Bioreagents Victoria, British Columbia, CANADA) according to a modified protocol in house. In brief, Hsp70 in plasma specimens and serial concentrations of Hsp70 standard were captured onto 96-well plate on which anti-Hsp70 antibody was coated. Then captured Hsp70 was detected with a biotinylated anti-Hsp70 antibody followed by incubation with europium-conjugated streptavidin. After each incubation unbound materials were removed by washing. Finally, antibody-Hsp70 complex was measured by time resolved fluorometry of europium. Concentration of Hsp70 was calculated from a standard curve.

[4] = Tissue distribution in SW female mice, intravenous (Example 1); format: in vivo; settings: mouse
Procedure: Plasma samples were prepared by combining 50 μL plasma+50 μL 1% dithiothreitol (DTT)+150 μL CH3CN (0.1% HCOOH), centrifuged at 10,000 rpm×5 min; 150 μL supernatant+90 μL H2O. Tissue samples were prepared by homogenizing a weighed tissue sample in phosphor-buffered saline (PBS, ×1)+1% DTT (×1)+CH3CN (0.1% HCOOH) (×3)), centrifuged at 10,000 rpm×5 min; 150 μL supernatant+90 μL H2O. […] The running time was 15 min.

[5] = in vivo
[6] = Phase I trial, plasma pharmacokinetics by LC/MS (Example 11); settings: co-administered with Compound (1) 44-[…]^2
Procedure: Pharmacokinetic (PK) studies were performed during cycle 1 using liquid chromatography/mass spectrometry (LC/MS) to measure both compounds in plasma. Heat shock protein 70 (Hsp70) was measured in plasma before and after treatment.

With `CN(NC(=O)CC(=O)NN(C)C(=S)c1ccccc1)C(=S)c1ccccc1` [Compound (1)] the “patients with evaluable samples showing increased NK cell activity” value (K562/eGFP; assayed 7 days after the second dose, with carboplatin and paclitaxel) was “Seven of the 8”, the “% tumor cell lysis post-dose” value (K562/eGFP; per subject, Effector/Target 80:1, dose cells empty (subjects 9-11)) was 3.8% and 45.98% and the half-life (in vivo; female, SW, mouse, in vivo, po, 100 mg/kg) was 2.3 h. The “adverse effects (AEs), usually Grade 1-2” value ([1]; Phase 1, 16 patients, with carboplatin and paclitaxel) was “arthralgia and myalgia, peripheral neuropathy, rash, nausea, and vomiting, fatigue, alopecia, edema, dehydration, constipation, and decreased blood counts”, the “tolerability of the carboplatin:paclitaxel:Compound (1) combination” value ([1]; at the dose levels studied) was “well tolerated” and the “plasma levels of Hsp70” value (Hsp70 [2]) was “increase”. The “Hsp70 concentrations, change” value (Hsp70 [3]; 175 mg/m2 Compound (1) + paclitaxel 175 mg/m2, two patients) was “more than doubled”, the “percent increase in Hsp70 concentrations” value (Hsp70 [3]; 263 mg/m2 Compound (1) + paclitaxel 175 mg/m2, a third patient) was “more than 250%” and the “Hsp70 concentrations, change” value (Hsp70 [3]; 263 mg/m2 Compound (1) + paclitaxel 175 mg/m2, two patients) was “roughly doubled”. For the same compound, the “percent increase in Hsp70 concentrations” value (Hsp70 [3]; 350 mg/m2 Compound (1) + paclitaxel 175 mg/m2, all patients) was “more than 200%”, the “percent increase in Hsp70 concentrations” value (Hsp70 [3]; 350 mg/m2 Compound (1) + paclitaxel 175 mg/m2, two patients) was ≤ 500% and the “percent increase in Hsp70 concentrations” value (Hsp70 [3]; 438 mg/m2 Compound (1) + paclitaxel 175 mg/m2, another patient) was ≤ 500%. For the same compound, the “Hsp70 concentrations, change” value (Hsp70 [3]; 438 mg/m2 Compound (1) + paclitaxel 175 mg/m2, two patients) was “roughly doubled” and the “induction of Hsp70 protein in plasma, dose dependence” value (Hsp70 [3]; combined with paclitaxel) was “dose dependent”.
With `COc1ccc(OC)c(C(=S)N(C)NC(=O)C(C)C(=O)NN(C)C(=S)c2cc(OC)ccc2OC)c1` [Compound (9)] the “per os AUC as % of the intravenous value at 4 hours” value (in vivo; per os 100 mg/kg formulation B vs intravenous 25 mg/kg formulation A, AUC 0-4 hours) was “about 30%”.
Work on `CN(NC(=O)CC(=O)NN(C)C(=S)C1CC1)C(=S)C1CC1` [Compound (18)] yielded a Kp at 30 min ([4]; brain, intravenous, 25 mg/kg, read-out: brain concentration as % of plasma concentration) of 0.19, a Kp at 30 min ([4]; brain, iv, first experiment, 25 mg/kg intravenously, 30 min after injection, read-out: brain concentration as % of the plasma concentration) of ~0.07 and a concentration at 30 min ([4]; brain, iv, first experiment, 25 mg/kg intravenously, 30 min after injection, read-out: concentration in brain) of ~2 µM. The concentration at 30 min ([4]; kidney, iv, first experiment, 25 mg/kg intravenously, 30 min after injection, read-out: concentration in kidney) was 50 µM, the concentration at 30 min ([4]; liver, iv, first experiment, 25 mg/kg intravenously, 30 min after injection, read-out: concentration in liver) was 33 µM and the concentration at 30 min ([4]; spleen, iv, first experiment, 25 mg/kg intravenously, 30 min after injection, read-out: concentration in spleen) was 25 µM.
For `CC(=O)O[C@H]1C(=O)[C@@]2(C)[C@H]([C@H](OC(=O)c3ccccc3)[C@]3(O)C[C@H](OC(=O)[C@H](O)[C@@H](NC(=O)c4ccccc4)c4ccccc4)C(C)=C1C3(C)C)[C@]1(OC(C)=O)CO[C@@H]1C[C@@H]2O` [Paclitaxel, paclitaxel], the dose limiting toxicities [5] was “neutropenia, arthralgia, and febrile neutropenia with mucositis”, the “paclitaxel Vss, dependence on the Compound (1) dose” value [6] was “increase” and the “paclitaxel clearance, dependence on the Compound (1) dose” value [6] was “significant trend toward decreasing clearance”. The “paclitaxel terminal phase half-life, dependence on the Compound (1) dose” value [6] was “without affecting”.
